Experimental data published in patent US12466807B2, “Salt and crystal form of a FAK inhibitor” (Amplia Therapeutics Limited, priority 2019, dated 2025).
“Also recorded” adds a separate entry of the source. Marks after values point to notes of the source that are not given here.

What was measured:
[1] = Dynamic/gravimetric vapour sorption (DVS/GVS) hygroscopicity; format: physicochemical; settings: for Hygroscopicity, mass uptake (DVS/GVS): at 90% R.H., 25° C.
Protocol: Approximately 10-20 mg of sample was placed into a mesh vapour sorption balance pan and loaded into the DVS-1 dynamic vapour sorption balance by Surface Measurement Systems. The sample was subjected to a ramping profile from 40-90% relative humidity (RH) at 10% increments, maintaining the sample at each step until a stable weight had been achieved (dm/dt 0.004%, minimum step length 30 minutes, maximum step length 500 minutes) at 25° C. After completion of the sorption cycle, the sample was dried using the same procedure to 0% RH and then a second sorption cycle back to 40% RH. Two cycles were performed. The weight change during the sorption/desorption cycles were plotted, allowing for the hygroscopic nature of the sample to be determined. XRPD analysis was then carried out on any solid retained.
Approximately 10-20 mg of sample was placed into a mesh vapour sorption balance pan and loaded into an IGASorp Moisture Sorption Analyser balance by Hiden Analytical. The sample was subjected to a ramping profile from 40-90% relative humidity (RH) at 10% increments, maintaining the sample at each step until a stable weight had been achieved (98% step completion, minimum step length 30 minutes, maximum step length 60 minutes) at 25° C. After completion of the sorption cycle, the sample was dried using the same procedure to 0% RH, and finally taken back to the starting point of 40% RH. Two cycles were performed. The weight change during the sorption/desorption cycles were plotted, allowing for the hygroscopic nature of the sample to be determined.

7-day stability study = format: physicochemical; settings: for XRPD / HPLC Purity: 1 week; for HPLC Purity: input purity 99.8%
Protocol: 7-day stability tests were carried out as follows: • Approximately 10-20 mg of Formula I L-tartrate Pattern 1 was placed at either 40° C./75% RH, 80° C. or under ambient light and temperature for 1 week. The resulting solids were analyzed by XRPD to assess the physical stability and HPLC to assess the chemical stability.

[2] = Salt disproportionation studies; format: physicochemical; settings: for XRPD Result: solid after 24 h in deionized water
Protocol: Salt disproportionation studies were carried out as follows: • Approximately 10-20 mg of Formula I free base, L-tartrate Pattern 1 were weighed into HPLC vials. • 1 mL deionized water was then added to each vial and the vials capped and shaken at ambient temperature for 24 hours. • After this time, the samples were transferred to centrifuge tubes with nylon filters (0.22 μm) and centrifuged for approximately 15 minutes. The isolated solids were analyzed by XRPD and the filtrates analyzed by HPLC for concentration determination and the pH of all the filtrates were measured with a pH meter.

Hydration studies = format: physicochemical; settings: 24 h
Protocol: Hydration studies were carried out as follows: • Approximately 10-20 mg of Formula I free base, L-tartrate Pattern 1, were weighed into 1.5 mL vials. • Water/acetone mixtures were prepared to give water activities of 0.281, 0.637 and 0.888. • The appropriate water/acetone mixture was then added to each vial to form a slurry and the vials capped and shaken at ambient temperature for 24 hours. • After this time, the slurries were transferred to centrifuge tubes containing nylon filters (0.22 μm) and centrifuged for 15 minutes. The isolated solids were analyzed by XRPD.

[3] = Oral exposure (pharmacokinetics) in rats; format: in vivo, male Sprague Dawley rats; settings: rat
Protocol: To compare the exposure of the compound of Formula I in male Sprague Dawley rats following oral administration of the free base and L-tartrate salt at a target dose of 20 mg/kg (as free base equivalent).
Further details of the in-life, formulation and bioanalytical procedures together with the data analysis, are described in Appendix 1.
In-Life • The exposure of Formula I was studied in overnight-fasted male Sprague Dawley rats that had access to water ad libitum throughout the pre- and post-dose sampling period, and access to food was re-instated 4 h post-dose. In-life details are provided in Table A1-1. • Samples of arterial blood and total urine were collected up to 48 h post-dose. Arterial blood was collected directly into borosilicate vials (at 4° C.) containing heparin, Complete® (a protease inhibitor cocktail) and potassium fluoride to minimise potential for ex vivo degradation of Formula I in blood/plasma samples. Once collected, blood samples were centrifuged, supernatant plasma was removed and stored frozen (−80° C.) until analysis by LC-MS.
The extraction of the test compound from plasma samples was conducted using protein precipitation with acetonitrile. Both solution and plasma standards were freshly prepared, with each set of standards comprising at least seven different analyte concentrations. Solution standards were diluted from a stock solution (1 mg/mL in DMSO) with 50% acetonitrile in water. Plasma standards were prepared by spiking blank plasma (50 μL) with solution standards (10 μL) and the internal standard, diazepam (10 μL, 5 μg/mL).
Plasma samples were similarly prepared, except that blank acetonitrile (10 μL) was added instead of solution standards. Protein precipitation was carried out by the addition of acetonitrile (120 μL), vortexing (20 s) and centrifugation (10,000 rpm) in a microcentrifuge for 3 minutes. The supernatant was subsequently separated and 3 μL injected directly onto the column for LC/MS analysis using conditions tabulated below. All plasma concentrations are expressed as the non-salt equivalent.
Standard Calculations • Plasma concentration versus time data were analysed using non-compartmental methods (PKSolver Version 2.0). Standard calculations for each pharmacokinetic parameter are listed below.
[formula] • AUCIV Area under the plasma concentration versus time profile from time zero to infinity after IV administration (reported previously: CDCO_FAK_11_031) • t1/2 Elimination half-life • λ2 Terminal elimination rate constant after IV administration • BA Oral bioavailability • AUCoral Area under the plasma concentration versus time profile from time zero to infinity after oral administration • Cmax Maximum plasma concentration observed after oral administration. • Tmax Time to achieve Cmax • Differences in pharmacokinetic parameters (t½, AUC, Cmax, Tmax and BA) between free base and L-tartrate salt were evaluated using an unpaired t-test testing for significance at α=0.05 (GraphPad Prism, version 7.01)

[4] = listed as Formula I L-tartrate Pattern 1
[5] = PO 20 mg/kg (free base equivalent), mean ± SD, n = 3, listed as L-Tartrate salt, 20 mg/kg

Hygroscopicity, mass uptake (DVS/GVS) [1]: Uptake of 0.6 wt %
Hygroscopicity, mass uptake (DVS/GVS) [1, 4]: 0.6 wt %
Hygroscopic nature by GVS analysis ([1]; up to 90% RH): slightly hygroscopic
XRPD (7-day stability study; 40° C./75% RH): Pattern 1
HPLC Purity (7-day stability study; 40° C./75% RH): 99.6 % Area
XRPD (7-day stability study; 80° C.): Pattern 1
HPLC Purity (7-day stability study; 80° C.): 99.3 % Area
XRPD (7-day stability study; Ambient temperature and light): Pattern 1
HPLC Purity (7-day stability study; Ambient temperature and light): 99.5 % Area
Stability under accelerated conditions (7-day stability study; one week, ambient temperature and light, 40° C./75% RH and 80° C.): considered stable
Salt disproportionation ([2]; deionized water, 24 h): no evidence of disproportionation
Water pH Post-24 h ([2]; deionized water, 24 h, ambient temperature, listed as L-Tartrate Pattern 1): 3.43
XRPD Result [2, 4]: L-tartrate Pattern 2
XRPD Result ([2]; listed as L-Tartrate Pattern 1): L-Tartrate Pattern 2
XRPD Result (Hydration studies; Water Activity 0.281, water/acetone): Pattern 1
XRPD Result (Hydration studies; Water Activity 0.637, water/acetone): Pattern 1
XRPD Result (Hydration studies; Water activity 0.888, water/acetone, listed as L-Tartrate Pattern 1): Pattern 2 (hydrate)
XRPD Result (Hydration studies; Water activity 0.888, water/acetone, listed as L-tartrate Pattern 1): L-tartrate Pattern 2
Apparent t1/2 [3, 5]: 5.8 ± 0.2 h
BA [3, 5]: 71.3 ± 7.5 %
Plasma AUC0-inf [3, 5]: 14.6 ± 1.5* h*μM
Tmax [3, 5]: 5.7 ± 1 h
Cmax ([3]; PO 20 mg/kg (free base equivalent), mean ± SD, n = 3, listed as L-Tartrate salt, 20 mg/kg, read-out: Plasma Cmax): 1200 ± 300 nM
Cmax greater than the free base ([3]; PO 20 mg/kg): approximately 30%
Plasma AUC compared with the free base ([3]; PO 20 mg/kg): significantly higher
% Dose in urine (unchanged Formula I) ([3]; PO 20 mg/kg, pooled urine up to 48 h, listed as L-Tartrate salt, 20 mg/kg): 0.341 ± 0.042%
AUC greater than the free base ([3]; PO 20 mg/kg, P<0.05): ~50%
N-demethylation metabolite of Formula I ([3]; plasma and urine after PO 20 mg/kg, not quantified): detected in plasma and urine
SMILES: COc1cc(C2CCN(C)CC2)ccc1Nc1ncc(C(F)(F)F)c(CCc2ccccc2CC(N)=O)n1 [L-Tartrate]
Post-GVS XRPD ([1]; after GVS humidity cycles, listed as Formula I L-tartrate Pattern 1): no changes to the XRPD pattern; also recorded: no change in form
Adverse reactions or compound-related side effects ([3]; PO 20 mg/kg, 48 h sampling period): No adverse reactions or compound-related side effects were observed
